Legend:
[1] = Stability of bupivacaine within the composition on storage; format: physicochemical; settings: 4° C.
Experimental: The same method was applied to determine the lidocaine release. A first assay confirmed that the bupivacaine within the composition is stable for 3 months at 4° C.

[2] = HPLC and MS analysis of bupivacaine after association and release from CDA; format: physicochemical; settings: cold isostatic compression; three days in water at 37° C.; HPLC and MS vs native molecule
Experimental: Bupivacaine-loaded CDA (400 mg) was stirred in 5 ml of water for three days at 37° C. The aqueous solution was passed through a microfiltration membrane with a pore size of 0.22 μm. Several aliquots of this solution were diluted to working concentration with HPLC. An aliquot of this solution (1 ml) was extracted with 1 ml of dichloromethane (HiPerSolv for HPLC, VWR-BDH). The organic phase was dried over Na2SO4 for further MS studies. HPLC HP 1100 (C18 column, Inertsil 5 ODS-3), flow: 0.5 ml mn^−1, solvent: acetonitrile/water [80/20], injection volume: 10 μl, detection: 230 nm). The liquid phase was prepared by mixing Acetonitrile for HPLC Gradient Grade (VWR-BDH-Prolabo) with pure water. A thermo Electron Corporation DSQ II bench-top quadruple mass spectrometer fitted with a direct sample probe or GC, with chemical ionization (CI), was used for data acquisition and processing.

[3] = continuous intravenous administration; cited from earlier work
[4] = intrabone injection, percutaneous vertebroplastics; cited from earlier work

| SMILES | stability of bupivacaine within the composition [1] [months] | integrity of bupivacaine after association with CDA granules and release [2] | postoperative morphine intake [3] | effectiveness versus antalgic protocol comprising nalbuphine and paracetamol [4] | serum levels of lidocaine [4] |
| --- | --- | --- | --- | --- | --- |
| CCCCN1CCCCC1C(=O)Nc1c(C)cccc1C (centres unmarked) [bupivacaine] | 3 | remained unchanged |  |  |  |
| CCN(CC)CC(=O)Nc1c(C)cccc1C [lidocaine] |  |  | reduction of the postoperative morphine intake | comparable effectiveness | much below the toxic level |

Source: patent US20140004207A1, “Analgesic Apatitic Calcium-Phosphate Cement” (priority 2008, published 2014)
